Values after ≈ are worked out from the molar mass of the structure shown.
How the values were obtained:
[1] = Binding potential and rate of bone-targeting micelles on hydroxyapatite (HA)
Method: The solvent was evaporated in vacuum to yield a polymeric film on the wall of the flask. The thin polymeric film formed was then hydrated with a 10 mM phosphate buffered saline solution (PBS, pH 7.4) at 50° C. to set the micelles. The micelles were prepared as the method mentioned above for bone-targeting micelles: 0.9% […], 0.1% ALN-[…], 0.02% RB-[…]; for controls: 1% […], 0.02% RB-[…]). […] The mixtures were allowed to be gently agitated for 1, 5, 10, or 30 minutes at room temperature. […] The spectra of the supernatant was recorded on a UV-Visible spectrophotometer and compared with that of the initial micelle solution. Micelle containing RB-[…] but no ALN-[…] and RB were used as controls in this experiment.

S. Mutans UA159 = assay: In vitro inhibition of S. Mutans biofilm growth on HA discs; type: cell-based, Streptococcus Mutans; settings: 48 hours incubation, compared to controls, FIG. 3
Method: S. Mutans UA159 was used in this study. S. Mutans were stored frozen at −80° C. A fresh culture was prepared before each experiment. A single colony of S. Mutans was inoculated into 3 mL of THYE (Todd-Hewitt Yeast Extract) medium and allow to growth statically overnight at 37° C. with 5% CO2. The overnight culture was diluted to a density of 5×10^4 CFU/ml with chemically defined biofilm media (CDM) (Biswas et al. (2007) J. Bacteriol., 189:6521-6531).
Autoclaved HA discs (7 mm×1.8 mm) were incubated with different micelle solutions, a farnesol solution in ethanol, or CDM in a 24-well plate for 1 hour to achieve maximum loading. The discs were then removed from the wells and vortex washed twice with saline for 10 seconds. The discs were subsequently washed with culture media to remove unbounded micelle. For the farnesol ethanol solution group, discs were washed twice with ethanol and then washed with saline. The HA discs were then transferred to 1 mL of diluted S. Mutans, and cultured statically for 48 hours to allow biofilm growth at 37° C. with 5% CO2.
On day three post bacteria inoculation, the HA discs were dip-washed 3 times with THYE media to remove loosely attached bacteria and then placed in 1 mL of THYE media. The surfaces of HA discs were gently scraped with a sterile spatula to harvest adherent cells. […]

[2] = Hornby et al. (2001); cited from earlier work

## CCN(CC)c1ccc2c(-c3ccccc3C(=O)O)c3ccc(=[N+](CC)CC)cc-3oc2c1.[Cl-] [RB, Rhodamine B]
[1]; 30 minutes incubation, FIG. 4A
  binding to HA (in words): slightly bound

## CC(C)=CCCC(C)=CCCC(C)=CCO [farnesol, 3,7,11-trimethyl-2,6,10-dodecatrien-1-ol]
S. Mutans UA159
  inhibition of S. Mutans biofilm formation on HA discs: did not show inhibition
[2]
  water solubility: 1200 µM (≈ 267 µg/mL)

## Pluronic® 123-alendronate conjugate [ALN-P123]
[1]; 10 minutes incubation, FIG. 4B
  bound to HA: 45%
[1]; 30 minutes incubation
  bound to HA (ultimate binding equilibrium): 55%

Reference: patent US20110171144A1, “Functional Micelles for Hard Tissue Targeted Delivery of Chemicals” (priority 2008, published 2011)
